What was measured:
[1] = test system: 293T human cells; assay: In vitro biological activity assay: transfection of 293T cells, HIV-1 p24 antigen ELISA of supernatant; assay type: cell-based; conditions: N/P ratio of 3
Method: The in vitro biological activity test of the NanoComp is performed by transfection of 293T human cells. 50,000 cells are plated in 96 well plate 19 hours before transfection, using DMEM culture medium (DMEM, 1% FBS, 1% L-glutamine, 1% Penicillin-Streptomycin). 0.5µg pDNA/NanoComp is added to each well followed by 21 hours incubation at 37°C in 5% CO2 air condition. During the incubation period, the HIV-specific protein antigens encoded by the pDNA are expressed and secreted into the culture medium. After 21 hours, the supernatant of the cells are collected, and HIV-1 p24 antigen ELISA is performed to quantify p24 protein produced by the pDNA.

[2] = Side reaction of formulation solvent with PEIm (UV spectra after storage); assay type: physicochemical; conditions: room temperature, 2 month
Method: • a) NanoComp formulations were prepared according to Example 1, using the same PEIm and pDNA at N/P ratio of 3, and different solvents: sterile water, physiological NaCl (0.9%), D(+)-Mannitol (10 mg/ml), Sorbitol (10 mg/ml), D(+)-Glucose (10 mg/ml), Mannose (10 mg/ml), Sucrose (10 mg/ml), Triethanolamine buffer (TEA) (pH 7.5), D(+)-Mannitol (10 mg/ml) in triethanolamine (TEA) buffer (pH 7.5), Sorbitol (10 mg/ml) in triethanolamine buffer (pH 7.5) and D(+)-Mannitol (10 mg/ml) and Glycerol (10 mg/ml) in triethanolamine buffer (pH 7.5). The biological activity is given procentual related to the biological activity of the formulation in sterile water. Results are shown in Fig. 7A. • b) PEIm solution, mixture of PEIm with Glucose (10%) and Mannitol (10%) respectively, NanoComp formulations with Glucose (10%) and Mannitol (10%) were prepared according to Example 1, the missing component in all mixtures were replaced with water, to ensure the same concentration of the components. The prepared solutions were stored at room temperature (approx. 25°C) for 2 month. UV spectra were recorded without dilution. […] The particle size of the formed complexes was measured using ZetaPALS, Brookehaven instrument freshly and after 6 days storage at room temperature.

Question: Which “effect of solvent on the biological activity of the NanoComp compared to sterile water” value [1] does the source give for `OC[C@@H](O)[C@@H](O)[C@H](O)[C@H](O)CO` [mannitol, D(+)-Mannitol] here?
Answer: same improving effect on the biological activity

Question: What about the “side reaction of solvent with PEIm over time” value [2] of the same molecule?
Answer: without side reactions with PEIm
